We go through two compounds from US20170226518A1, “COMPOSITIONS AND METHODS FOR TREATING CANCER” (Autotelic LLC, priority 2016, published 2017).

Data set [1] concerns HUP-T3 pancreatic cancer cells. Description: Cellular proliferation of HUP-T3 pancreatic cancer cells in vitro. It counts as cell-based. The conditions noted are these: treatment on day 1 for 5 h, measured after 7 days. The procedure: (§1) The aim of the study was to determine the effect of AP12009 (trabedersen) treatment in combination with 5-Fluorouracil (5-FU) on TGFβ2 secretion and on cellular proliferation of HUP-T3 pancreatic cancer cells and WiDr colon cancer cells in vitro.
(§2) 10 μM of AP12009 as monotherapy decreased cell proliferation (53% proliferation of untreated control) and TGFβ2 expression (42% of untreated control) in HUP-T3 cells.

The test system of data set [2] is TGFβ2. Description: TGFβ2 secretion/expression in HUP-T3 pancreatic cancer cells. Type of data set: cell-based. The conditions noted are these: ca. The procedure:
as §1, §2

Data set [3] concerns WiDr colon cancer cells. Description: Cellular proliferation of WiDr colon cancer cells in vitro. It counts as cell-based. The conditions noted are these: treatment on day 1 for 5 h only, ca.
From the text: as §1

Data set [4] has as its system TGFβ2. Description: TGFβ2 secretion/expression in WiDr colon cancer cells. It counts as cell-based. Conditions: ca.
From the text: as §1

Data set [5] has as its system C8161 human melanoma cells. Description: C8161 melanoma xenograft model: tumor growth and survival. Conditions: for Tumor growth suppressed relative to control group 1: day 42.
Protocol: Sixty female athymic nude mice were intradermally inoculated with C8161 human melanoma cells and randomized into six groups of 10 mice. Three groups received monotherapy treatment with either OT-101 (trabedersen) (16 mg/kg) (Group 2) or Dacarbazine (DTIC; 1 or 10 mg/kg; Groups 3, 4). Two groups received combination therapy with OT-101/DTIC at 16/1 mg/kg or 16/10 mg/kg (Groups 5 and 6). Vehicle (0.9% saline, Groups 1, 3, and 4) and OT-101 were administered 3 times/week via subcutaneous injection. Vehicle (0.9% saline, Groups 1 and 2) and DTIC (1 or 10 mg/kg) were administered via intraperitoneal injection four times/week. All OT-101/Trabedersen treatments commenced at day 0 of the study and all DTIC treatments commenced on day 14. Mice were monitored for adverse effects, body weight and tumor size three times weekly. The tumor, lungs, liver and kidneys were excised from all mice at termination and weighed.

For the compound `O=c1[nH]cc(F)c(=O)[nH]1` [5-FU, 5-Fluorouracil, reference compound], the “5-FU concentrations that dose-dependently reduced cell proliferation” value in data set [1] is greater than 10 µM. Besides, the “5-FU concentrations at which TGFβ2 was suppressed” value in data set [2] and in data set [4] was greater than 75 µM in each case. Further, in data set [3], the “5-FU concentrations that concentration-dependently reduced cell proliferation” value is greater than 38 µM.

Take `CN(C)/N=N/c1[nH]cnc1C(N)=O` [DTIC, Dacarbazine]: the “Tumor growth suppressed relative to control group 1” value in data set [5] (group 3: DTIC 1 mg/kg i.p. four times/week from day 14) is −2%; in data set [5] (group 4: DTIC 10 mg/kg i.p. four times/week from day 14) it was 78%. Moreover, the median survival was determined as 47 days in data set [5] (group 3: DTIC 1 mg/kg) and 60 days in data set [5] (group 4: DTIC 10 mg/kg).
